Experimental data reported in the NIST ThermoML archive (doi:10.1021/je900596d).

Settings: Fluid (supercritical or subcritical phases), Vibrating tube method

FC(F)=C(F)C(F)(F)F [hexafluoropropene]
mass density [kg/m3]
Settings | 343.26 K | 348.12 K
3.1 kPa | – | 0.11
3.7 kPa | – | 0.12
4.8 kPa | – | 0.23
5.4 kPa | – | 0.18
6.4 kPa | – | 0.27
7.4 kPa | – | 0.23
8.3 kPa | – | 0.31
8.9 kPa | – | 0.35
9.9 kPa | – | 0.43
11.5 kPa | – | 0.57
15.2 kPa | – | 0.72
17 kPa | – | 0.83
18.8 kPa | – | 0.9
22.4 kPa | – | 1.11
24.2 kPa | – | 1.25
27.7 kPa | – | 1.44
29.5 kPa | – | 1.44
31.2 kPa | – | 1.52
34.9 kPa | – | 1.74
36.7 kPa | – | 1.87
38.3 kPa | – | 1.89
41 kPa | – | 2.08
43.9 kPa | – | 2.27
46.5 kPa | – | 2.39
49.3 kPa | – | 2.49
55.8 kPa | – | 2.86
59.3 kPa | – | 3.01
62.6 kPa | – | 3.24
65.9 kPa | – | 3.31
72.5 kPa | – | 3.77
75.7 kPa | – | 3.95
78.9 kPa | – | 4.06
82.3 kPa | – | 4.24
89 kPa | – | 4.57
92.4 kPa | – | 4.78
95.9 kPa | – | 4.89
99.3 kPa | – | 5.1
102.8 kPa | – | 5.38
108.9 kPa | – | 5.66
121.1 kPa | – | 6.31
127.3 kPa | – | 6.62
139.4 kPa | – | 7.29
145.5 kPa | – | 7.59
151.6 kPa | – | 7.92
157.7 kPa | – | 8.3
168.6 kPa | – | 8.79
172.3 kPa | – | 9.11
176 kPa | – | 9.23
186.9 kPa | – | 9.89
190.6 kPa | – | 10.07
194.2 kPa | – | 10.28
201.5 kPa | – | 10.61
208.9 kPa | – | 10.99
216.2 kPa | – | 11.48
230.6 kPa | – | 12.26
237.9 kPa | – | 12.55
245.2 kPa | – | 13.05
252.4 kPa | – | 13.5
266.8 kPa | – | 14.29
274 kPa | – | 14.64
281 kPa | – | 15
295.2 kPa | – | 15.84
303.3 kPa | – | 16.23
310.5 kPa | – | 16.69
317.5 kPa | – | 17.06
324.5 kPa | – | 17.51
331.5 kPa | – | 17.9
338.4 kPa | – | 18.25
352.2 kPa | – | 19.05
359.1 kPa | – | 19.45
366 kPa | – | 19.85
379.7 kPa | – | 20.59
386.5 kPa | – | 20.98
393.2 kPa | – | 21.4
399.9 kPa | – | 21.73
413.4 kPa | – | 22.49
420.1 kPa | – | 22.92
426.9 kPa | – | 23.28
433.5 kPa | – | 23.69
443.2 kPa | – | 24.38
470.9 kPa | – | 25.92
484.7 kPa | – | 26.77
498.3 kPa | – | 27.51
515 kPa | – | 28.53
528 kPa | – | 29.29
541 kPa | – | 30.15
566.4 kPa | – | 31.68
575.8 kPa | 33.42 | –
579.2 kPa | – | 32.43
590.5 kPa | 34.28 | –
591.2 kPa | – | 33.18
603.3 kPa | – | 33.86
604.4 kPa | 35.15 | –
617.9 kPa | 35.97 | –
631.9 kPa | 36.94 | –
638.4 kPa | – | 36.05
646.4 kPa | 37.76 | –
655.4 kPa | – | 37.08
660.3 kPa | 38.68 | –
672.1 kPa | – | 38.15
674.2 kPa | 39.57 | –
688.2 kPa | 40.47 | –
688.5 kPa | – | 39.21
701.9 kPa | 41.42 | –
704.5 kPa | – | 40.22
715.6 kPa | 42.26 | –
720.3 kPa | – | 41.24
729.6 kPa | 43.14 | –
735.8 kPa | – | 42.16
743.3 kPa | 44.1 | –
756.9 kPa | 44.99 | –
765.5 kPa | – | 44.05
770.5 kPa | 45.84 | –
783.7 kPa | 46.78 | –
794.2 kPa | – | 45.95
797.6 kPa | 47.61 | –
808 kPa | – | 46.91
810.7 kPa | 48.57 | –
823.9 kPa | 49.41 | –
827.5 kPa | – | 48.2
844.7 kPa | – | 49.34
850.2 kPa | 51.23 | –
863 kPa | 52.13 | –
863.4 kPa | – | 50.7
876.3 kPa | 53.04 | –
889.1 kPa | 53.92 | –
890.4 kPa | – | 52.34
902.2 kPa | 54.71 | –
902.7 kPa | – | 53.25
914.9 kPa | 55.73 | –
915.6 kPa | – | 54.2
928.7 kPa | 56.6 | 55.05
941.5 kPa | 57.53 | –
945.4 kPa | – | 56.14
954 kPa | 58.46 | –
967.8 kPa | 59.43 | –
972.6 kPa | – | 58.01
981 kPa | 60.4 | –
985.8 kPa | – | 58.92
994.4 kPa | 61.4 | –
1005.6 kPa | – | 60.36
1008.2 kPa | 62.31 | –
1020.2 kPa | 63.29 | –
1023.4 kPa | – | 61.55
1034.9 kPa | 64.41 | –
1040.8 kPa | – | 62.84
1046.9 kPa | 65.28 | –
1057.8 kPa | – | 64.05
1060.3 kPa | 66.22 | –
1073.4 kPa | 67.25 | –
1074 kPa | – | 65.2
1087.5 kPa | 68.21 | –
1089.6 kPa | – | 66.39
1100.8 kPa | 69.23 | –
1108 kPa | – | 67.73
1115.6 kPa | 70.43 | –
1129.3 kPa | 71.49 | –
1138.6 kPa | – | 69.96
1141.9 kPa | 72.46 | –
1150.7 kPa | – | 70.83
1155.2 kPa | 73.52 | –
1168.1 kPa | – | 72.19
1170.3 kPa | 74.72 | –
1184.8 kPa | – | 73.38
1185.3 kPa | 75.94 | –
1200.7 kPa | 77.06 | –
1201.8 kPa | – | 74.83
1215.9 kPa | 78.32 | –
1219.5 kPa | – | 76.17
1231.1 kPa | 79.48 | –
1231.5 kPa | – | 77.05
1246.2 kPa | 80.8 | –
1248.8 kPa | – | 78.38
1260.9 kPa | 82.02 | –
1265.1 kPa | – | 79.72
1275.9 kPa | 83.2 | –
1280.3 kPa | – | 80.92
1290.3 kPa | 84.46 | –
1297.6 kPa | – | 82.21
1305.2 kPa | 85.7 | –
1313.7 kPa | – | 83.6
1318.4 kPa | 86.81 | –
1330.4 kPa | – | 84.96
1332.6 kPa | 88.06 | –
1346.3 kPa | – | 86.2
1347.2 kPa | 89.34 | –
1361.6 kPa | 90.6 | –
1362.7 kPa | – | 87.68
1375.5 kPa | 91.86 | –
1378.7 kPa | – | 88.93
1389.9 kPa | 93.09 | –
1395.3 kPa | – | 90.32
1403.7 kPa | 94.34 | –
1410.5 kPa | – | 91.58
1417.7 kPa | 95.63 | –
1426.3 kPa | – | 92.94
1431.1 kPa | 96.88 | –
1442.6 kPa | – | 94.4
1445 kPa | 98.11 | –
1458.7 kPa | 99.32 | –
1460.3 kPa | – | 95.93
1471.8 kPa | 100.55 | –
1473.3 kPa | – | 97.06
1485.2 kPa | 101.78 | –
1487.3 kPa | – | 98.32
1498.3 kPa | 103.12 | –
1511.1 kPa | 104.29 | –
1511.6 kPa | – | 100.57
1540.1 kPa | – | 103.11
1562.1 kPa | 109.24 | –
1566 kPa | – | 105.5
1588.6 kPa | 111.94 | –
1592.2 kPa | – | 107.78
1614.7 kPa | 114.55 | –
1616.1 kPa | – | 110.1
1639.3 kPa | – | 112.32
1641.2 kPa | 117.35 | –
1669.2 kPa | 120.33 | –
1683.8 kPa | – | 116.62
1691 kPa | 122.68 | –
1708.4 kPa | – | 119.29
1719.3 kPa | 125.81 | –
1732.6 kPa | – | 121.75
1745.8 kPa | 128.82 | –
1756.5 kPa | – | 124.29
1773.3 kPa | 132.05 | –
1800.9 kPa | 135.31 | –
1827.4 kPa | 138.58 | –
1854.7 kPa | 141.97 | –
1880.9 kPa | 145.46 | –
1908.3 kPa | 149.04 | –
1933.9 kPa | 152.57 | –
1960.3 kPa | 156.37 | –
1986.1 kPa | 160.18 | –
2014.5 kPa | 164.44 | –
2041.7 kPa | 168.76 | –
2069.4 kPa | 173.21 | –
2096.3 kPa | 177.82 | –
2121.6 kPa | 182.61 | –
2139 kPa | 185.89 | –
2156.2 kPa | 189.13 | –
2172.4 kPa | 192.4 | –
2188.6 kPa | 195.87 | –
2204.8 kPa | 199.3 | –
2221.6 kPa | 203.18 | –
2237.7 kPa | 208.04 | –
2240 kPa | 209.71 | –
2240.5 kPa | 210.31 | –
2241 kPa | 210.66 | –
2241.7 kPa | 211.34 | –
2242.3 kPa | 212.06 | –
2242.9 kPa | 213.01 | –
2243.5 kPa | 214.62 | –
2243.9 kPa | 215.07 | –
2244.6 kPa | 216.87 | –
2245.3 kPa | 218.74 | –
2245.7 kPa | 219.44 | –
2246.2 kPa | 220.03 | –
2246.7 kPa | 220.73 | –
2247.1 kPa | 221.76 | –
2247.5 kPa | 223.54 | –
2248 kPa | 224.32 | –
2248.4 kPa | 225.47 | –
2248.8 kPa | 227.07 | –
2249.3 kPa | 230.72 | –
2249.7 kPa | 239.12 | –
